# Experiments:
# [1] = Solubility of SOMCL-9112 API and solid dispersions in water and buffers (37° C., shaking); format: physicochemical; details: for solubility at 8 h: 37 °C, thermodynamic from solid
# Protocol: The SOMCL-9112 solid dispersion prepared in this Example and the SOMCL-9112 API powder were dissolved in water, simulated gastric fluid (pH 1.2), phosphate buffer (pH 4.5) and simulated intestinal fluid (pH6.8) to measure the solubility of SOMCL-9112 (37° C., shaking at 100 rpm for 8 h). The solid dispersion was sampled at 4 h and 8 h.
# The SOMCL-9112 solid dispersion prepared in this example was dissolved in water, simulated gastric fluid (pH 1.2), phosphate buffer (pH 4.5) and simulated intestinal fluid (pH6.8) to measure the solubility of SOMCL-9112 (37° C., shaking at 100 rpm for 8 h).
# The SOMCL-9112 solid dispersion prepared in this example was dissolved in a simulated intestinal fluid (pH6.8) to measure the solubility of SOMCL-9112 (37° C., shaking at 100 rpm for 8 h).
# [2] = Equilibrium solubility test (24 h, HPLC); format: physicochemical; details: thermodynamic from solid; for solubility thermodynamic at 24 h: 37° C., 100 rpm
# Protocol: Equilibrium Solubility Test: The solubility of SOMCL9112 in a series of solvents was investigated. The main solvents included water, pH 1.2 simulated gastric fluid, pH 4.5 phosphate buffer, and pH 6.8 simulated intestinal fluid. 0.5 g of SOMCL-9112 API was taken and added to 100 ml of each of the above solvents. The mixture was shaken at 37° C. shaker at 100 rpm for 24 h. The supernatant was centrifuged at 8000 rpm for 15 min and the concentration of SOMCL-9112 was determined by HPLC.
# [3] = system: Caco-2 cell model; assay: in vitro
# Protocol: (§1) Permeability Test: The permeability of SOMCL-9112 was evaluated using Caco-2 cell model.
# [4] = system: P-gp; assay: in vitro; details: human
# Protocol: as §1
# [5] = in vitro; details: human
# Protocol: as §1
# [6] = target: poly-ADP-ribose polymerase (PARP) (Homo sapiens, UniProt P09874); details: in words, no data shown; cited from earlier work
# poly-ADP-ribose polymerase (PARP), sequence (P09874 whole entry): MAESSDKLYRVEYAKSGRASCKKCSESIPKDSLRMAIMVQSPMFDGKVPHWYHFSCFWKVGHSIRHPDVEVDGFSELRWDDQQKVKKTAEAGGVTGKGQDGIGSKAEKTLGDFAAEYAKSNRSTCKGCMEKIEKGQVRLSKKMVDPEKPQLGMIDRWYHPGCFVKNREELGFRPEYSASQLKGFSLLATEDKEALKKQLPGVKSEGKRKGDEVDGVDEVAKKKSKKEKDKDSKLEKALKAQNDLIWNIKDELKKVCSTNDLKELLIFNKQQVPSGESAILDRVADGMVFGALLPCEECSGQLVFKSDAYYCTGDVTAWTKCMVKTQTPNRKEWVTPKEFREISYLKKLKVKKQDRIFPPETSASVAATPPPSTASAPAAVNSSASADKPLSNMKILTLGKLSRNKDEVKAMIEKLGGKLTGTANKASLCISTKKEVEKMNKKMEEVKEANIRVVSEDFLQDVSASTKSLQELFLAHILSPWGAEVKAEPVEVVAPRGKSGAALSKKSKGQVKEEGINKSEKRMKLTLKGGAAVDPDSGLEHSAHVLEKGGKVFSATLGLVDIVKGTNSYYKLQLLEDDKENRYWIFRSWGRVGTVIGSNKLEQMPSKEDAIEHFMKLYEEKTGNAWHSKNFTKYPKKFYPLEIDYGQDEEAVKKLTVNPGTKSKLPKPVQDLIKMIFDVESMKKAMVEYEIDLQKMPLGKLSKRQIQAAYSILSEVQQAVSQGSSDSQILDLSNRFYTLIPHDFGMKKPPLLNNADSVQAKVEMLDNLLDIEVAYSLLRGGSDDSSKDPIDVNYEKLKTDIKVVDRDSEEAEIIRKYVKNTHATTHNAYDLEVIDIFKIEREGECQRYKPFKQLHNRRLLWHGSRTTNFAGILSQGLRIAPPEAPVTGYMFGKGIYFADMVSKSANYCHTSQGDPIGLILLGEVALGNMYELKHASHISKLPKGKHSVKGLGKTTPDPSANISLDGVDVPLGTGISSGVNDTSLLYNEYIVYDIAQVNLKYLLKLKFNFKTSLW
smiles,measurement,setting,value
"CC1CN(C(=O)c2cc(Cc3n[nH]c(=O)c4ccccc34)ccc2F)Cc2nnc(C(F)(F)F)n21 (stereo not drawn) [SOMCL-9112, 4-(4-fluoro-3-(5-methyl-3-(trifluoromethyl)-5,6,7,8-4H-[1,2,4]triazolo[4,3-a]piperazine-7-carbonyl)benzyl)phthalazin-1(2H)-one]",solubility at 8 h,"[1]; pH 1.2, simulated gastric fluid",10.5 µg/mL
same,solubility at 8 h,"[1]; pH 4.5, aqueous buffer",18.9 µg/mL
same,solubility at 8 h,"[1]; pH 6.8, fassgf or other biorelevant",15.4 µg/mL
same,solubility at 8 h,[1]; water,15.8 µg/mL
same,solubility,[1]; fassgf or other biorelevant,~10 µg/mL
same,solubility thermodynamic,"[2]; 37 °C, aqueous buffer, pH 1.2-6.8 buffer saline solution",< 100 µg/mL
same,solubility thermodynamic at 24 h,"[2]; aqueous buffer, pH 4.5 phosphate buffer",18.6 µg/mL
same,solubility thermodynamic at 24 h,"[2]; fassgf or other biorelevant, pH 6.8 simulated intestinal fluid",16.2 µg/mL
same,solubility thermodynamic at 24 h,[2]; pH 1.2 simulated gastric fluid,10.3 µg/mL
same,solubility thermodynamic at 24 h,[2]; water,14.8 µg/mL
same,Permeability characteristic,[3],low permeability characteristic
same,efflux ratio at 2 μM,[4]; Caco-2,22.6
same,efflux ratio at 10 μM,[4]; Caco-2,61.9
same,efflux ratio at 50 μM,[4]; Caco-2,54.5
same,Papp A→B at 2 μM,[5]; Caco-2,0.72 ×10⁻⁶ cm/s
same,Papp A→B at 10 μM,[5]; Caco-2,0.26 ± 0.03 ×10⁻⁶ cm/s
same,Papp A→B at 50 μM,[5]; Caco-2,0.34 ± 0.06 ×10⁻⁶ cm/s
same,Papp B→A at 2 μM,[5]; Caco-2,16.3 ± 0.34 ×10⁻⁶ cm/s
same,Papp B→A at 10 μM,[5]; Caco-2,16.1 ± 1.05 ×10⁻⁶ cm/s
same,Papp B→A at 50 μM,[5]; Caco-2,18.7 ± 0.28 ×10⁻⁶ cm/s
same,Inhibitory effect on PARP,[6],significant inhibitory effect
"CC(C)NCC(O)COc1cccc2ccccc12 (stereo not drawn) [Propranolol, reference compound]",efflux ratio,[4],0.72
same,Papp A→B,[5],10.5 ± 1.97 ×10⁻⁶ cm/s
same,Papp B→A,[5],7.57 ± 0.6 ×10⁻⁶ cm/s
"C[C@H]1O[C@@H](O[C@H]2[C@@H](O)C[C@H](O[C@H]3[C@@H](O)C[C@H](O[C@H]4CC[C@@]5(C)[C@H](CC[C@@H]6[C@@H]5C[C@@H](O)[C@]5(C)[C@@H](C7=CC(=O)OC7)CC[C@]65O)C4)O[C@@H]3C)O[C@@H]2C)C[C@H](O)[C@@H]1O [Digoxin, reference compound]",efflux ratio,[4],109
same,Papp A→B,[5],0.09 ± 0.01 ×10⁻⁶ cm/s
same,Papp B→A,[5],9.88 ± 1.41 ×10⁻⁶ cm/s

# — patent US11191761B2, “SOMCL-9112 solid dispersion and preparation method thereof and SOMCL-9112 solid preparation containing SOMCL-9112 solid dispersion” (SHANGHAI INSTITUTE OF MATERIA MEDICA, CHINESE ACADEMY OF …, priority 2015, dated 2021)
